Reference: patent US11957766B2, “HNQO1-activatable fluorescent probe for imaging cancer cells in-vitro and in-vivo” (Texas Tech University System, priority 2019, dated 2024)

Experiments:
[1] = biological target: NQO1 (Homo sapiens, UniProt P15559); assay: Selectivity of NIR-ASM for NQO1 over other enzymes/substrates; assay type: biochemical; set-up: purchased Sigma-Aldrich D1515; details: 30 min; GSH, ALDH1A1, GGT, GPx, APE1, CBS, CTSL, GST-pi, NADH, NTR
Excerpt: Selectivity of NIR-ASM. The selectivity of NIR-ASM probe was studied by examining its reactivity towards various biomolecules and antioxidant enzymes such as the glutathione, aldehyde dehydrogenase 1, gamma-glutamyl transferase, glutathione peroxidase, apurinic/apyrimidinic endonuclease, cystathionine-β-synthase, cathepsin L, glutathione S-transferase, NADH alone and the combination of nitroreductase and NQO1.
Determination of NIR-ASM specificity towards NQO1. The specificity towards NQO1 was investigated by incubating NIR-ASM (10 μm) with various biologically relevant analytes such as glutathione (GSH, 1 mM), aldehyde dehydrogenase 1 (ALDH1A1, 2.5 μg/mL), gamma-glutamyl transferase (GGT, 10 U), glutathione peroxidase (GPx, 10 U), apurinic/apyrimidinic endonuclease (APE1, 10 U), cystathionine-β-synthase (CBS, 2 μg/mL), cathepsin L (CTSL, 2 μg/mL), glutathione S-transferase (GST-pi, 2 μg/mL), NADH (100 μM) alone and the combination of nitroreductase (NTR, 2 μg/mL) and NQO1 (2 μg/mL) for 30 min. Fluorescence spectra were analyzed to determine NIR-ASM specificity against NQO1.

[2] = tested on: A549 and H460 cells; assay: Flow cytometry of NIR-ASM in NQO1-positive cancer cell lines; assay type: cell-based, human; details: 60 min, about 1×10^4 cells
Description: Detection of NQO1 in live cells. Inspired by the excellent biocompatibility, the inventors investigated its performance in both NQO1 expressing cancer cells (A549, H460) and NQO1 non-expressing normal cells (IMR90, HUVEC). All cells were incubated with NIR-ASM (10 μM) for 60 min, washed with PBS and were imaged under a confocal microscope after counterstaining the nuclei with Hoechst 33342 (FIG. 12A). […] The higher expression of NQO1 protein in A549 and H460 cells and its absence in normal cells, IMR90 and HUVEC as found with western blot analysis correlated with the probe reactivity in cells (FIG. 12B). […] Cell sorting using flow cytometry is a well-established technology in clinical diagnostics and biomedical research. To assess the applicability of the NIR-ASM to rapidly detect and quantify in both cancer and normal cells based on NQO1 expression, the probe was incubated with cell suspensions for 60 min, and about 1×10^4 cells were analyzed on a flow cytometer.
Flow cytometry analysis. The endogenous NQO1 activity of cancer cells and normal cells was determined by flow cytometry after NIR-ASM exposure. Cells were incubated with 10 μM of NIR-ASM for 60 min, harvested by trypsinization and washed with PBS. For inhibitor study, cells were pretreated with NQO1 inhibitor ES936 (100 nM) for 6 h before adding the NIR-ASM. About 1×10^4 cells were analyzed by flow cytometry (λex=488 nm).

[3] = tested on: brain tumor (DAOY, T98G, and U87MG) and normal (astrocytes) cells; assay: Cytotoxicity of NQ-DCP, resazurin reduction assay; assay type: cell-based, human; details: 100 μM, 72 h incubation
Description: Visualization of Cancer Cells by Fluorescence Imaging of hNQO1. […] The cytotoxicity of NQ-DCP was initially evaluated in cultured brain tumor (DAOY, T98G, and U87MG) and normal (astrocytes) cells to assess its biocompatibility using the resazurin reduction assay. […] Cells were incubated with NQ-DCP (10 μM) for 60 min, washed with PBS and were imaged under a fluorescence microscope.

[4] = tested on: subcutaneous U87MG tumor; assay: Fluorescence imaging of hNQO1 in subcutaneous U87MG tumor-bearing mice with NQ-DCP; assay type: in vivo
Description: Fluorescence Imaging of hNQO1 in U87MG Tumor-Bearing Mice. With the prominent performance of NQ-DCP in cellular fluorescence imaging, the inventors further applied this probe to evaluate its capacity for the noninvasive fluorescence imaging of hNQO1 in vivo. NQ-DCP (10 mg/kg, 50 μL) was intravenously injected into sub-cutaneous U87MG tumor-bearing mice. The whole-body fluorescence was imaged with a Caliper IVIS Spectral imaging system. […] The host organs and tumor from the mice administered with NQ-DCP were harvested and their fluorescence was analyzed ex vivo using the IVIS to confirm the tumor-selective targeting ability of NQ-DCP. […] The application of NQ-DCP to image hNQO1 activity was also investigated in intracranial U87MG tumor-bearing mice. Tumor xenografts were established by implanting exponentially growing U87MG-Luc cells by stereotaxic injection into mice brain and the tumor growth was assessed by quantitative bioluminescence using IVIS (in vivo imaging system) (FIG. 7C). […] Therefore, the inventors performed intracranial injection of NQ-DCP (100 μM, 5 μL) to both healthy and tumor-bearing mice, the brain was isolated after 30 min and fluorescence images acquired.
Four-week-old male and female NCG and athymic nude mice were housed in a micro ventilated caging system in a sterile environment and fed ad-libitum with standard irradiated research rodent diet and water. […]

NQO1, sequence (P15559 whole entry): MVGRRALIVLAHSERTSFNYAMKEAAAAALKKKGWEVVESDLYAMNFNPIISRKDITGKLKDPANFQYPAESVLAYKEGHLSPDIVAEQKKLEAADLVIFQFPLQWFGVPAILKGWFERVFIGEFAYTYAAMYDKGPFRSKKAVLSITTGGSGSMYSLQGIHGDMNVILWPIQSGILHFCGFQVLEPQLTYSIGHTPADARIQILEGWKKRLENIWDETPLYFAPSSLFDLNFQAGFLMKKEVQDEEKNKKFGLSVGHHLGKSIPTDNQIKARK

SMILES	selectivity for NQO1 over the other enzymes/substrates tested [1]	flow cytometry fluorescence signal, NQO1-positive cells [2]	cytotoxicity [3]	time of maximum fluorescence in the tumor ([4]; 10 mg/kg, 50 μL, intravenous) [min]	ex vivo fluorescence in tumor and organs ([4]; organs harvested after intravenous NQ-DCP, 30 min)
CC1=C(C)C(=O)C(C(C)(C)CC(=O)Nc2ccc(/C=C/C3=CC(=C(C#N)C#N)CC(C)(C)C3)cc2)=C(C)C1=O [NIR-ASM, (E)-N-(4-(2-(3-(dicyanomethylene)-5,5-dimethylcyclohex-1-en-1-yl)vinyl)phenyl)-3-methyl-3-(2,4,5-trimethyl-3,6-dioxocyclohexa-1,4-dien-1-yl)butanamide]	high selectivity	high-intensity unimodal distribution of signals	–	–	–
CC1=C(C)C(=O)C(C(C)(C)CC(=O)Oc2ccc(/C=C/C3=CC(=C(C#N)C#N)CC(C)(C)C3)cc2)=C(C)C1=O [NQ-DCP]	–	–	nontoxic	30	selectively observed in the tumor and not in any other major organs
